Values after ≈ are worked out from the molar mass of the structure shown.
Key:
mouse organ of Corti = assay: EdU proliferation assay in the mouse organ of Corti; type: in vivo; conditions: mice, single IP 300 mg/kg; for EdU-positive cells in the OC at 72 h: 72 h treatment group; for EdU-positive cells in the OC at 24 h and 48 h: EdU 50 mg/kg, 4 h, unpaired T-test, p < 0.05
Procedure: C57BL/6J male and female mice between postnatal day 24 and 30 P-24-30) were randomized into control and experimental groups (9 mice per group per compound), with each experimental group receiving a single intraperitoneal (IP) injection of Qx-294 or Qx-301 at a dose of 300 mg/kg body weight, dissolved in dimethyl sulfoxide (DMSO). Controls consisted of treatment with DMSO alone (vehicle). A total of 90 adult wild-type C57/BL6 mice were used in this study. Based on the analysis, animals were examined at various times following treatment as described below.
In vitro cell proliferation effects of all ten initial compounds (Figure 1A,B) were tested on HEI-OC1, Neuro-2A and HT-1080 cells by TACS® 3-(4,5-dimethylthiazol-2-yl)-2,5-diphenyltetrazolium bromide (MTT) Cell Proliferation Assay (R&D Systems, Minneapolis, MN, USA, 4890-025-K), following the manufacturer’s protocol. Absorbance was measured with SpectraMax® M Series Multi-Mode Microplate Reader with Soft Max Pro 7.2 GxP Software (Molecular Devices, Sunnyvale, CA, USA), and the average OD in control cells was taken as 100% of viability. Upon selecting the most viable compounds (Qx-294 and Qx-301), we proceeded with in vivo experiments. For zebrafish treatment, animals were incubated for varied times with different concentrations (50, 100, 150, 200, 250, and 300 μg/mL) of Qx-294 or Qx-301 diluted in swimming (E3) media or administered via IP injections. Mice treatment followed the same procedures as described in [18]. Following treatment, animals or tissue samples were incubated in Click-it EdU or Click-it Plus TUNEL kits (Thermo Scientific, Waltham, MA, USA), following the manufacturer’s instructions to label proliferating and apoptotic cells, respectively.
Cell numbers in mouse cochleae or fish, as well as fish neuromast morphologies, were evaluated in 25 zebrafish per drug and treatment group across three experimental runs. For mouse analyses, 18 cochleae (from 9 mice) per treatment and three experimental repetitions were examined. Images were analyzed at 200X magnification, obtained from different neuromasts and cochlear regions (apex, middle, and base). HCs were quantified in the mouse OC by counting M7a-positive cells, with HC identity further confirmed by phalloidin-labeled stereocilia. Apoptosis and cell proliferation events, on the other hand, were quantified by counting TUNEL- and EdU-positive cells, respectively. […] The number of HCs (IHCs and OHCs) is expressed as units per 200 μm. […] IHCs and OHCs were counted on reconstructed confocal stacks using NIH ImageJ v1.8.0 software. […] Reliability statistics were calculated in SPSS v22.0. […] Fluorescence incorporation following treatment with FM1-43 was quantified according to [19] using ImageJ. […]

[1] = test system: zebrafish lateral line neuromast HCs; assay: Zebrafish neuromast morphology scoring (otoferlin/GFP immunofluorescence); type: in vivo, zebrafish (Danio rerio); conditions: 5-dpf zebrafish, 24 h; for Neuromast morphology scores vs control: 50–300 μg/mL in E3 medium, Kruskal–Wallis, p > 0.05
Procedure: The GFP (Tg(brn3c: GFP) zebrafish larvae expressing HC membrane-bound GFP [19] were used to evaluate the effect of Qx-294 and Qx-301 on HCs and SCs of the lateral line neuromasts. Healthy 5-dpf zebrafish, maintained at 28.5 °C, were randomly distributed into Petri dishes at a density of 50 embryos/larvae per 100 mm^2 and exposed to various concentrations of Qx-294 and Qx-301 (50, 100, 150, 200, 250, and 300 μg/mL) diluted in E3 (5 mM NaCl, 0.17 mM KCl, 0.33 mM CaCl2 and 0.33 MgSO4, pH 7.2) medium for 24 h. Following treatment, the animals were transferred to E3 media for 30 min to recover, then cryoanesthetized and fixed with 4% paraformaldehyde (PFA) overnight at 4 °C. The following neuromasts were analyzed in our studies: IO4 (infraorbital 4), OP1 (opercular 1), M2 (mandibular 2), O1 (otic 1), O2, and MI2 (middle 2). An arbitrary scoring protocol was used to rank the morphology of each neuromast after treatment as follows: 1 (normal rosette-like shape, HCs look normal, HC bundles are properly arranged), 2 (normal rosette-like shape, a few HCs appear to be missing, but HC bundles are properly arranged), 3 (normal rosette-like morphology but several HCs are gone and HC bundles look disturbed), 4 (the rosette-like shape is lost in certain areas, few HCs, and few disrupted HC bundles), and 5 (no rosette-like shape, one or two dispersed HCs and no HC bundles). At least 25 animals per treatment were assessed, for a total of 200 across the entire study. The assessment was performed in a double-blind and unbiased manner. Scores were expressed as percentages of the total of neuromasts analyzed per treatment.
Cochlear dissection in mice and immunofluorescence experiments on zebrafish neuromasts and mouse cochleae were performed as previously described. The antibody and labeling kits used in this study included Otoferlin (Developmental Studies Hybridoma Bank, Iowa City, IA, USA, HCS-1), GFP (Novus Biologicals, NB100-1614), and rabbit anti-myosin VIIa (M7a) (Thermo Scientific, Waltham, MA, USA, PA1-936). Species-specific Alexa Fluor-conjugated secondary antibodies were used for detection. Phalloidin conjugated to Alexa 488 (Thermo Scientific, Waltham, MA, USA, O7466) and DAPI were used for labeling stereocilia and the nucleus, respectively.

Kinetic solubility assay = type: physicochemical; conditions: for solubility at 6 h: physiological buffer, pH 7.4, kinetic solubility, physiological buffer pH 7.4, room temperature, six hours
Procedure: A stock solution of each active compound in DMSO (10 mg/mL) was prepared and diluted into physiological buffer (pH 7.4) to a concentration of 100 µg/mL, and the mixture was left at room temperature for six hours. After six hours, the sample was centrifuged, and the supernatant was diluted with a methanol-water solution containing an internal standard (IS). The calibration curve was established using seven-point standards prepared by serial dilution in a range that the unknown sample signal would likely fall in and precisely simulating the sample preparation process. The standards and samples were quantified using LC-MS/MS, and unknown concentrations were back-calculated from the calibration curve.

Row | Compound | EdU-positive cells in the OC at 72 h (mouse organ of Corti) | EdU-positive cells in the OC at 24 h and 48 h (mouse organ of Corti) | Neuromast morphology scores vs control [1] | Neuromast morphology at 50 and 150 μg/mL ([1]; not statistically significant) | Aqueous solubility (Kinetic solubility assay) | solubility at 6 h (Kinetic solubility assay) | Neuromast morphology at the highest concentrations vs control ([1]; not statistically significant)
1 | c1ccc2nc(N3CCOCC3)cnc2c1 [Qx-294, 2-(morpholine)-quinoxaline] | no proliferating (EdU-positive) cells were observed | higher percentage of EdU-positive cells | did not differ significantly from those of the control group | some HC loss was observed | low aqueous solubility | ~0.551 µg/mL (≈ 2.56 µM) | 
2 | c1ccc2nc(N3CCCC3)cnc2c1 [Qx-301, 2-(pyrrolidine)-quinoxaline] | no proliferating (EdU-positive) cells were observed | higher percentage of EdU-positive cells | did not differ significantly from those of the control group |  | low aqueous solubility | 0.365 ± 0.028 µg/mL (≈ 1.83 µM) | improved morphology

— PMC12731105, “Design and Synthesis of New Quinoxaline Analogs to Regenerate Sensory Auditory Hair Cells” (Cells, 2025)
